These results are taken from US20210246115A1 (Bioimics AB, priority 2017, published 2021).

In experiment [1] the test system is Staphylococcus aureus subsp. aureus (ATCC29213). The experiment can be described thus: MIC, broth microdilution (CLSI), Staphylococcus aureus ATCC29213. To be noted: for MIC: Staphylococcus aureus. It counts as cell-based. Background: Dilution methods test growth across graded concentrations, often in twofold steps.
The subject of experiment [2] is E. coli RNase P RNA, M1 RNA. The experiment can be described thus: Inhibition of bacterial RNase P activity, IC50 determination (cleavage of pATSerUG by M1 RNA). The format is biochemical. To be noted: NI: No inhibition.
Experiment [3] has as its system Escherichia coli (ATCC25922). The experiment can be described thus: MIC, broth microdilution (CLSI), Escherichia coli. To be noted: for MIC: Escherichia coli, ATCC25922, read-out: E. coli ATCC 25922 MIC, Table XIII.
Description: Initial minimal inhibitory concentration (MIC) tests were made on two bacterial strains: • Escherichia coli (ATCC25922) • Staphylococcus aureus (ATCC25923).
MIC values were determined using the standard broth microdilution procedure based on the guidelines by the Clinical and Laboratory Standards Institute (CLSI). Briefly, the compounds were dissolved in DMSO to 10 mM. They were diluted in cation-adjusted Mueller-Hinton broth (CAMHB) to four times the highest concentration tested. A serial two-fold dilution in CAMHB was done in microdilution plates. The inoculum of bacterial strain to be tested was prepared by making a suspension of colonies from an 18 to 24 hours old plate in CAMHB. The inoculum was diluted so that, after inoculation, each well contained approximately 5×10^5 CFU/mL. To a volume of 50 μl compound in CA 3 an equal volume of inoculum was added. The tray was sealed in a plastic bag and incubated at 35° C. for 16 to 20 hours. To aid in the detection of growth the dye resazurin was added to a final concentration 0.001% and incubated at room temperature for 1 h. Reduction of resazurin, and therefore bacterial growth, was seen as a change from blue to pink.
Where [4] appears, read: ATCC29213, Table XIII, read-out: S. aureus ATCC 29213 MIC.
Setting [5] is: ATCC29213, read-out: S. aureus ATCC 29213 MIC, Table XIII.

≈ marks a conversion by molar mass, not a printed value. Structures can show the parent of a compound that is named as a salt. Where two headings read alike, the source gives them in different places.

For the compound `Cc1cccc(C(CCNCCCN)c2cn(C3CC4CCC3C4)c3ccccc23)c1.Cl.Cl` (stereo not drawn) [Compound 341, N1-(3-(1-(bicyclo[2.2.1]heptan-2-yl)-1H-indol-3-yl)-3-(m-tolyl)propyl)propane-1,3-diamine hydrochloride salt], the MIC is 8 µg/mL in experiment [1] (setting [4]) and 4 µg/mL in experiment [3]. The IC50 in experiment [2] was determined as 32 µM.
As to `Cc1cccc(CC(CCNC2CCNCC2)c2cn(C3CCCCC3)c3ccccc23)c1` (stereo not drawn) [Compound 418, N-(3-(1-cyclohexyl-1H-indol-3-yl)-4-(m-tolyl)butyl)piperidin-4-amine hydrochloride salt], the MIC in experiment [1] (setting [5]) worked out at 8 µg/mL; in experiment [3], 4 µg/mL. The IC50 in experiment [2] came to 17 µM.
In the case of `Cc1ccccc1C(CCNCCCN)c1cn(C2CCCCC2)c2ccccc12.Cl.Cl` (stereo not drawn) [Compound 345, N1-(3-(1-cyclohexyl-1H-indol-3-yl)-3-(o-tolyl)propyl)propane-1,3-diamine hydrochloride salt], the minimal inhibitory concentration (MIC) stood at 8 µg/mL in experiment [1] (setting [4]) and 4 µg/mL in experiment [3]. The compound also had an IC50 in experiment [2] of 41 µM.
For `Cc1ccccc1-c1ccc2c(c1)c(CCCNCCCN)cn2C1CCCCC1.Cl.Cl` [Compound 362, N1-(3-(1-cyclohexyl-5-(o-tolyl)-1H-indol-3-yl)propyl)propane-1,3-diamine hydrochloride salt] the same measures were 4 µg/mL, 4 µg/mL and 8.3 µM.
For `Cc1cccc(C(CCN[C@H]2CC[C@H](NC(N)=O)CC2)c2cn(C3CCCCC3)c3ccccc23)c1` (stereo partly drawn) [Compound 377, 1-((1R,4R)-4-((3-(1-cyclohexyl-1H-indol-3-yl)-3-(m-tolyl)propyl)amino)cyclohexyl) urea] the same measures were 16 µg/mL (≈ 32.9 µM), above 128 µg/mL and 130 µM.
Turning to `FC(F)(F)Oc1cccc(-c2ccc3c(c2)c(C2CCCC(NC4CCNCC4)C2)cn3C2CCCCC2)c1` (stereo not drawn) [Compound 403, N-(3-(1-cyclohexyl-5-(3-(trifluoromethoxy)phenyl)-1H-indol-3-yl)cyclohexyl) piperidin-4-amine hydrochloride salt], the MIC in experiment [1] (setting [5]) is 4 µg/mL; in experiment [3], 16 µg/mL. Half-maximal inhibition in experiment [2] (IC50) required 7 µM.
On to `Cc1cccc(-c2ccc3c(c2)c(CCNCCCN)cn3C2CCCCC2)c1.Cl.Cl` [Compound 384, N1-(2-(1-cyclohexyl-5-(m-tolyl)-1H-indol-3-yl)ethyl)propane-1,3-diamine hydrochloride salt], for which the MIC in experiment [1] (setting [4]) and in experiment [3] was 4 µg/mL each time. This compound displayed an IC50 in experiment [2] of 19 µM.
`Cc1cccc(C(CCNCCCN)c2cn(C3CCCCC3)c3ccccc23)c1.Cl.Cl` (stereo not drawn) [Compound 310, N1-(3-(1-cyclohexyl-1H-indol-3-yl)-3-(m-tolyl)propyl)propane-1,3-diamine hydrochloride salt]: the MIC in experiment [1] (setting [4]) and in experiment [3] was 4 µg/mL in each case. Also, in experiment [2] (hydrochloride salt), the concentration for half-maximal inhibition (IC50) came out at 18 µM.
Regarding `NCCCNC1CCCC(c2cn(C3CCCCC3)c3ccc(C4CCCCC4)cc23)C1` (stereo not drawn) [Compound 420, N1-(3-(1,5-dicyclohexyl-1H-indol-3-yl)cyclohexyl)propane-1,3-diamine], the minimal inhibitory concentration (MIC) in experiment [1] (setting [4]) and in experiment [3] was 2 µg/mL (≈ 4.59 µM) in each case. Also, the IC50 in experiment [2] came out at 8.4 µM.
Regarding `NCCCNC1CCCC(c2cn(C3CCCCC3)c3ccc(Br)cc23)C1` (stereo not drawn) [Compound 380, N1-(3-(5-bromo-1-cyclohexyl-1H-indol-3-yl)cyclohexyl)propane-1,3-diamine salt], the MIC in experiment [1] (setting [4]) and in experiment [3] was 4 µg/mL throughout. For the same compound, the IC50 in experiment [2] turned out to be 35 µM.
For the compound `Cl.Cl.NCCCNCCC(c1cn(C2CCCCC2)c2ccccc12)C1CCCC1` (stereo not drawn) [Compound 423, N1-(3-(1-cyclohexyl-1H-indol-3-yl)-3-cyclopentylpropyl) propane-1,3-diamine hydrochloride salt], the results for the MIC in experiment [1] (setting [4]) and in experiment [3] were 8 µg/mL and 2 µg/mL, respectively. Half-maximal inhibition in experiment [2] (IC50) required 31 µM.
As to `Cc1cccc(C(CCNC2CCNCC2)c2cn(CC3CCCCC3)c3ccc([N+](=O)[O-])cc23)c1` (stereo not drawn) [Compound 428, N-(3-(1-(cyclohexylmethyl)-5-nitro-1H-indol-3-yl)-3-(m-tolyl)propyl)piperidin-4-amine hydrochloride salt], the MIC in experiment [1] (setting [5]) turned out to be 4 µg/mL; in experiment [3], 32 µg/mL. In experiment [2], this compound displayed an IC50 of 15 µM.
Take `Cc1cccc(C(CCNCCCN)c2cn(C3CCCCC3)c3ccc(C#N)cc23)c1.Cl.Cl` (stereo not drawn) [Compound 379, 3-(3-((3-aminopropyl)amino)-1-(m-tolyl)propyl)-1-cyclohexyl-1H-indole-5-carbonitrile hydrochloride salt]: the MIC in experiment [1] (setting [4]) and in experiment [3] was 8 µg/mL throughout. In experiment [2], this compound displayed an IC50 of 34 µM.
As for `Cc1cccc(C(CCN[C@H]2CC[C@H](N)CC2)c2cn(C3CCCC3)c3ccccc23)c1.Cl.Cl` (stereo partly drawn) [Compound 332, (1R,4R)-N1-(3-(1-cyclopentyl-1H-indol-3-yl)-3-(m-tolyl)propyl) cyclohexane-1,4-diamine hydrochloride salt], the MIC in experiment [1] (setting [4]) and in experiment [3] was 8 µg/mL in each case. In experiment [2], this compound showed an IC50 of 39 µM.
Take `Cc1cccc(C(CCNCCCN)c2cn(C3CCNCC3)c3ccccc23)c1.Cl.Cl.Cl` (stereo not drawn) [Compound 322, N1-(3-(1-(piperidin-4-yl)-1H-indol-3-yl)-3-(m-tolyl)propyl)propane-1,3-diamine hydrochloride salt]: the MIC in experiment [1] (setting [4]) is 16 µg/mL; in experiment [3], above 128 µg/mL. In addition, in experiment [2], the IC50 was 120 µM.
For `Cl.Cl.NCCCNCCCc1cn(C2CCCCC2)c2ccc(C3CCCCC3)cc12` [Compound 399, N1-(3-(1,5-dicyclohexyl-1H-indol-3-yl)propyl)propane-1,3-diamine hydrochloride salt] the same measures were 4 µg/mL, 4 µg/mL and 6.3 µM.
For `CCCCCCCCn1cc(C(CCNCCCN)C2CCCCC2)c2cc(C#N)ccc21.Cl.Cl` (stereo not drawn) [Compound 427, 3-(3-((3-aminopropyl)amino)-1-cyclohexylpropyl)-1-octyl-1H-indole-5-carbonitrile hydrochloride salt] the same measures were 2 µg/mL, 4 µg/mL and 4.4 µM.
For `CC(C)=CCC/C(C)=C/Cn1cc(C(CCNCCCN)C2CCCCC2)c2ccccc21` (stereo not drawn) [Compound 421, (E)-N1-(3-cyclohexyl-3-(1-(3,7-dimethylocta-2,6-dien-1-yl)-1H-indol-3-yl)propyl)propane-1,3-diamine] the same measures were 4 µg/mL (≈ 8.89 µM), 8 µg/mL (≈ 17.8 µM) and 8.3 µM.
As to `Cc1cccc(C(CCNC2CCC(N)CC2)c2cn(C3CCCCC3)c3ccccc23)c1` [Compound 395, (1S,4S)- -N1-(3-(1-cyclohexyl-1H-indol-3-yl)-3-(m-tolyl)propyl) cyclohexane-1,4-diamine hydrochloride salt], in experiment [1] (Table XIII, hydrochloride salt), the “S. aureus ATCC 29213 MIC” value was determined as 1 µg/mL. In addition, the IC50 in experiment [2] (hydrochloride salt) amounted to 8.2 µM. In addition, the “E. coli ATCC 25922 MIC” value in experiment [3] (Table XIII, hydrochloride salt) turned out to be 8 µg/mL.
As to `Cc1cccc(C(CCNCC(N)CN)c2cn(C3CCCCC3)c3ccccc23)c1` (stereo not drawn) [Compound 394, N1-(3-(1-cyclohexyl-1H-indol-3-yl)-3-(m-tolyl)propyl)propane-1,2,3-triamine hydrochloride salt], the MIC in experiment [1] (setting [5]) was determined as 8 µg/mL; in experiment [3], 32 µg/mL. The compound further gave an IC50 in experiment [2] of 15 µM.
Regarding `Cc1cccc(C(CCNCCCN)c2cn(C3CCCCC3)c3ccccc23)c1` (stereo not drawn) [Compound 358, N1-(3-(1-cyclohexyl-1H-indol-3-yl)-3-(m-tolyl)propyl)propane-1,3-diamine], the figures for the MIC in experiment [1] (setting [4]) and in experiment [3] were 8 µg/mL (≈ 19.8 µM) and 4 µg/mL (≈ 9.91 µM), respectively. In addition, the IC50 in experiment [2] stood at 38 µM.
Consider `NCCCNCCC(c1cccc(OC(F)(F)F)c1)c1cn(C2CCCCC2)c2ccc(C(N)=O)cc12` (stereo not drawn) [Compound 376, 3-(3-((3-aminopropyl)amino)-1-(3-(trifluoromethoxy)phenyl)propyl)-1-cyclohexyl-1H-indole-5-carboxamide], for which the values for the MIC in experiment [1] (setting [4]) and in experiment [3] were 16 µg/mL (≈ 31 µM) and 32 µg/mL (≈ 61.9 µM), respectively. In experiment [2], this compound had an IC50 of 40 µM.
With `Cc1cccc(C(CCN(CCCN)CCCN)c2cn(C3CCCCC3)c3ccccc23)c1` (stereo not drawn) [Compound 363, N1-(3-aminopropyl)-N1-(3-(1-cyclohexyl-1H-indol-3-yl)-3-(m-tolyl)propyl)propane-1,3-diamine hydrochloride salt], the minimum inhibitory concentration (MIC) in experiment [1] (setting [5]) was 16 µg/mL; in experiment [3], 32 µg/mL. Moreover, in experiment [2], the IC50 came out at 12 µM.
For `Cc1cccc(C(CCNC2CCNCC2)c2cn(C3CC4CCC3C4)c3ccccc23)c1` (stereo not drawn) [Compound 323, hydrochloride salt] the same measures were 8 µg/mL, 4 µg/mL and 42 µM.
For `Cc1cccc(C(CCNC2CCNCC2)c2cn(C3CCCCC3)c3ccccc23)c1` (stereo not drawn) [Compound 309, N-(3-(1-cyclohexyl-1H-indol-3-yl)-3-(m-tolyl)propyl)piperidin-4-amine hydrochloride salt], the MIC was found to be 8 µg/mL in experiment [1] (setting [5]) and 4 µg/mL in experiment [3]. Moreover, the midpoint of inhibition in experiment [2], the IC50, lay at 39 µM.
As for `Cc1cccc(C(CCNC2CCNCC2)c2cn(C3CCCC3)c3ccccc23)c1.Cl.Cl` (stereo not drawn) [Compound 333, N-(3-(1-cyclopentyl-1H-indol-3-yl)-3-(m-tolyl)propyl)piperidin-4-amine hydrochloride salt], the MIC in experiment [1] (setting [4]) was determined as 16 µg/mL; in experiment [3], 8 µg/mL. In experiment [2], this compound registered an IC50 of 89 µM.
For `Cl.Cl.NCCCNCCC(c1cccc(C(F)(F)F)c1)c1cn(C2CCCCC2)c2ccccc12` (stereo not drawn) [Compound 351, N1-(3-(1-cyclohexyl-1H-indol-3-yl)-3-(3-(trifluoromethyl)phenyl)propyl)propane-1,3-diamine hydrochloride salt] the same measures were 4 µg/mL, 4 µg/mL and 16 µM.

In general, MIC refers to the lowest concentration found to suppress growth. What is called IC50 is the concentration at which inhibition is half-maximal.
